This is an account of results in patent US20250034159A1, “INHIBITORS OF EPIDERMAL GROWTH FACTOR RECEPTOR” (ORIC Pharmaceuticals, Inc., priority 2021, published 2025).

Test [1] addresses recombinant human EGFR L858R/C797S double mutant protein (Homo sapiens (Human), UniProt P00533, C797S/L858R). Kind of test: Biological Activity Assay B: biochemical assay against EGFR L858R/C797S protein (EGFR LR/CS). How it is done: In Row A of a 384-well polypropylene plate, was added 48 μL of DMSO. In wells A1 and A24, were added 12 μL of DMSO. […] To a well in Row A were added 12 μL of each 10 mM test compound stock (100% DMSO). […] The final intermediate dilution plate contained 4×16-point compound serial dilutions in assay buffer. The DMSO concentration was 10%. The intermediate compound dilution plate was transferred to the Bravo and the “5 uL dispense into ARP.pro” protocol was run. To the black low volume assay ready plates, were added 5 μL of 40 uM Phosphosens peptide sensor/4 mM ATP working solution to each well. […] To column 24, was added 10 μL of assay buffer. The final DMSO concentration was 2.5%. […] The plates were sealed with the TopSeal-A Plus plate seals. […] Set for 90 cycles with 120 second interval. […] The slope of each curve was constructed using Dotmatics in each well, and each IC50s was calculated using a 4-parameter fit model.

The next test concerns BaF3_EGFR LR/CS cells. The test is described as follows: Biological Activity Assay D: BaF3 cell proliferation assay, EGFR L858R/C797S mutant (BaF3 LR/CS). Type of test: cell-based. The following applies: Ba/F3 EGFR, read-out: BaF3 LR/CS IC50.
The subject of the next test is BaF3_EGFR d19/CS cells. The test is described as follows: Biological Activity Assay D: BaF3 cell proliferation assay, EGFR exon 19 deletion/C797S (BaF3 d19/CS). The conditions noted are these: Ba/F3 EGFR, read-out: BaF3 d19/CS IC50. Type of test: cell-based.
The target of test [2] is recombinant human EGFR exon 19 deletion/C797S double mutant protein (Homo sapiens (Human), UniProt P00533, C797S/DEL746-750). Kind of test: Biological Activity Assay C: biochemical assay against EGFR exon 19 deletion/C797S protein (EGFR d19/CS). The procedure, abridged:
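Compounds were tested as 16-point serial dilutions (final DMSO 2.5%) with a Phosphosens peptide sensor/ATP working solution (40 uM/4 mM). The signal was read kinetically over 90 cycles at 120 s intervals. IC50s came from 4-parameter fits of per-well slopes.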

Another test concerns Ba/F3_EGFR WT cells. Kind of test: Biological Activity Assay D: BaF3 cell proliferation assay, EGFR wild-type (BaF3 WT). The format is cell-based. The conditions noted are these: Ba/F3 EGFR, read-out: BaF3 WT IC50.
Where [3] appears, read: BaF3_EGFR LR/CS cells, ~72 hours, CellTiter-Glo.
Setting [4] is: BaF3_EGFR d19/CS cells, ~72 hours, CellTiter-Glo.
Setting [5] is: Ba/F3_EGFR WT cells, ~72 hours, CellTiter-Glo.

Where two headings read alike, the source gives them in different places.

Chain of recombinant human EGFR exon 19 deletion/C797S double mutant protein (P00533 other isoform, or with tags, fused parts or gaps C797S/del 1-668/del 746-750 limits assumed): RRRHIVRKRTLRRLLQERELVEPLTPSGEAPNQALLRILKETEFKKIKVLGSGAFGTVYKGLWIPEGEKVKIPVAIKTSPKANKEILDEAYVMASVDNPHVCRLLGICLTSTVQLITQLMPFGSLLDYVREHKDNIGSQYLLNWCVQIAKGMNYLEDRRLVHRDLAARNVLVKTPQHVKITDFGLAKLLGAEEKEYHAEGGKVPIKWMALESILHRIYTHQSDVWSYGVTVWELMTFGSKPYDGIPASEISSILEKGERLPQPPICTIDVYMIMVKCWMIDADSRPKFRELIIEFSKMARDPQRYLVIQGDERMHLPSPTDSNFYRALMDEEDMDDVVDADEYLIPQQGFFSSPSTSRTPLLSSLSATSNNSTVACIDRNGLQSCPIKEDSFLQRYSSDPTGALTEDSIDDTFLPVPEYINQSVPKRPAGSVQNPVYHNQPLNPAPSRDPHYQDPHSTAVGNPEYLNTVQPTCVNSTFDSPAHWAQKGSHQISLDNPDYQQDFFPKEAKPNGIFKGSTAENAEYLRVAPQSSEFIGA
Chain of recombinant human EGFR L858R/C797S double mutant protein (P00533 25-1210 C797S/L858R): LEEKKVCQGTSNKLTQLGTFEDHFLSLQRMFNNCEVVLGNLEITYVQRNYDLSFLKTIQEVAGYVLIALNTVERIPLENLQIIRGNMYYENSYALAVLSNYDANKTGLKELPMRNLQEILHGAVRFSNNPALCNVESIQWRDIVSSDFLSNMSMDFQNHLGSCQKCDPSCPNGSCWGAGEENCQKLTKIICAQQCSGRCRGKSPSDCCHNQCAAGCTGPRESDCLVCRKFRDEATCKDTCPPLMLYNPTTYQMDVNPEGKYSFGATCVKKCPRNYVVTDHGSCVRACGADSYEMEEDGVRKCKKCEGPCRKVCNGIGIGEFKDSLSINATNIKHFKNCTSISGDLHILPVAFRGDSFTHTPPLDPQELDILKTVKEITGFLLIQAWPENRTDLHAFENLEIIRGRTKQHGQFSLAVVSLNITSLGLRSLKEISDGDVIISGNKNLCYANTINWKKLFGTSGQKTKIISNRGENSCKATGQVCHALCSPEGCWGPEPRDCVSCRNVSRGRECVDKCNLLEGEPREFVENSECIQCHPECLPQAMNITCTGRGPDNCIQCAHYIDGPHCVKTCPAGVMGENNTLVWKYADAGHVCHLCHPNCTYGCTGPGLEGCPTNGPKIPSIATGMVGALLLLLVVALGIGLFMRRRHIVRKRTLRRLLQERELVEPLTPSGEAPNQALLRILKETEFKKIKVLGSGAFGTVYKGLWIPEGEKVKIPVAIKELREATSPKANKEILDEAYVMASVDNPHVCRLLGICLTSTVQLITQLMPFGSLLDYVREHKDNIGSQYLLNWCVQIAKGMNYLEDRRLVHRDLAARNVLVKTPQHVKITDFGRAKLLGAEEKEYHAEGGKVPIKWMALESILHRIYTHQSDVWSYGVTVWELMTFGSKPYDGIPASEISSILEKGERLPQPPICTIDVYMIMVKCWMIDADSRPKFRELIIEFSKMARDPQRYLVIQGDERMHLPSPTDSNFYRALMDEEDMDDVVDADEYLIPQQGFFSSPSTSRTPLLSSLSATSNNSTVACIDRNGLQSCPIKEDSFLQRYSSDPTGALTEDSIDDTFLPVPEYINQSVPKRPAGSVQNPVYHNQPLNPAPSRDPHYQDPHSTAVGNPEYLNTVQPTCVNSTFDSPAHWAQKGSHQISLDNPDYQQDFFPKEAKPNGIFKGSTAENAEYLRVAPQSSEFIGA

`O=S1(=O)CCC(Cn2cc(-c3ncnc4oc(-c5ccccc5)cc34)c(-c3ccc(F)cc3)n2)C1` (racemic) [Example 53, 3-{[3-(4-fluorophenyl)-4-(6-phenylfuro[2,3-d]pyrimidin-4-yl)-1H-pyrazol-1-yl]methyl}-1λ6-thiolane-1,1-dione]: the IC50 was determined as 0.462 nM in test [1]; 122 nM with BaF3_EGFR LR/CS cells (setting [3]); 40.8 nM in the test on BaF3_EGFR d19/CS cells (setting [4]); 0.538 nM in test [2]; 2130 nM in the test on Ba/F3_EGFR WT cells (setting [5]).
As to `Fc1ccc(-c2nn(C3CCOC3)cc2-c2ncnc3oc(-c4ccccc4)cc23)cc1` (racemic) [Example 85, 4-[3-(4-Fluorophenyl)-1-(oxolan-3-yl)-1H-pyrazol-4-yl]-6-phenylfuro[2,3-d]pyrimidine], the IC50 came to 0.58 nM in test [1]; 27.5 nM in the test on BaF3_EGFR LR/CS cells (setting [3]); 33.8 nM in the test on BaF3_EGFR d19/CS cells (setting [4]); 0.39 nM in test [2]; 1860 nM in the test on Ba/F3_EGFR WT cells (setting [5]).
Take `OCCCn1cc(-c2ncnc3sc(-c4ccccc4)cc23)c(-c2ccc(F)cc2)n1` [Example 68, 3-[3-(4-fluorophenyl)-4-(6-phenylthieno[2,3-d]pyrimidin-4-yl)-1H-pyrazol-1-yl]propan-1-ol]: the IC50 is 5.49 nM in test [1], 203 nM with BaF3_EGFR LR/CS cells (setting [3]), 723 nM in the test on BaF3_EGFR d19/CS cells (setting [4]) and 2.25 nM in test [2].
Regarding `Fc1ccc(-c2nn(C3COC3)cc2-c2ncnc3oc(-c4ccccc4)nc23)cc1` [Example 80, 7-[3-(4-fluorophenyl)-1-(oxetan-3-yl)-1H-pyrazol-4-yl]-2-phenyl[1,3]oxazolo[5,4-d]pyrimidine], the IC50 in test [1] is 6.38 nM; in the test on BaF3_EGFR LR/CS cells (setting [3]), 143 nM; in the test on BaF3_EGFR d19/CS cells (setting [4]), 388 nM; in test [2] it was 3.25 nM.
For the compound `COc1ncccc1-c1cc2c(-c3cn(CC(C)(C)O)nc3-c3ccc(F)cc3)ncnc2o1` [Example 271, 1-{3-(4-fluorophenyl)-4-[6-(2-methoxypyridin-3-yl)furo[2,3-d]pyrimidin-4-yl]-1H-pyrazol-1-yl}-2-methylpropan-2-ol], the IC50 worked out at 20.6 nM with BaF3_EGFR LR/CS cells (setting [3]), 14.1 nM in the test on BaF3_EGFR d19/CS cells (setting [4]), 0.252 nM in test [2] and 1600 nM with Ba/F3_EGFR WT cells (setting [5]).
`Cc1c(-c2cc3c(-c4cn(CC(C)(C)O)nc4-c4ccc(F)cc4)ncnc3o2)ncn1C` [Example 272, 1-{4-[6-(1,5-dimethyl-1H-imidazol-4-yl)furo[2,3-d]pyrimidin-4-yl]-3-(4-fluorophenyl)-1H-pyrazol-1-yl}-2-methylpropan-2-ol]: the IC50 in the test on BaF3_EGFR LR/CS cells (72 h) turned out to be 13.5 nM; in the test with BaF3_EGFR d19/CS cells (72 h), 15.7 nM; in test [2] it was 0.486 nM; in the test with Ba/F3_EGFR WT cells (72 h) it was 668 nM.
For the compound `Cn1ccc(-c2cc3c(-c4cn(CC(C)(C)O)nc4-c4ccc(F)cc4)ncnc3o2)n1` [Example 275, 1-{3-(4-fluorophenyl)-4-[6-(1-methyl-1H-pyrazol-3-yl)furo[2,3-d]pyrimidin-4-yl]-1H-pyrazol-1-yl}-2-methylpropan-2-ol], the IC50 with BaF3_EGFR LR/CS cells (setting [3]) amounted to 13.4 nM; in the test on BaF3_EGFR d19/CS cells (setting [4]), 11.9 nM; in test [2], 0.207 nM; in the test with Ba/F3_EGFR WT cells (setting [5]), 551 nM.
Take `COc1ccc(-c2cc3c(-c4cn(CC(C)(C)O)nc4-c4ccc(F)cc4)ncnc3o2)nc1` [Example 276, 1-{3-(4-fluorophenyl)-4-[6-(5-methoxypyridin-2-yl)furo[2,3-d]pyrimidin-4-yl]-1H-pyrazol-1-yl}-2-methylpropan-2-ol]: the IC50 in the test with BaF3_EGFR LR/CS cells (setting [3]) turned out to be 19 nM; in the test with BaF3_EGFR d19/CS cells (setting [4]) it was 13.5 nM; in test [2] it was 0.07 nM; with Ba/F3_EGFR WT cells (setting [5]) it was 677 nM.
The corresponding values for `CC(C)(O)Cn1cc(-c2ncnc3oc(-c4ccc(F)cn4)cc23)c(-c2ccc(F)cc2)n1` [Example 277, 1-{3-(4-fluorophenyl)-4-[6-(5-fluoropyridin-2-yl)furo[2,3-d]pyrimidin-4-yl]-1H-pyrazol-1-yl}-2-methylpropan-2-ol] are 74.4 nM, 40 nM, 0.332 nM and 1500 nM.
As to `Cn1cnc(-c2cc3c(-c4cn([C@H]5C[C@H](O)C5)nc4-c4ccc(F)cc4)ncnc3o2)c1` [Example 278, (1r,3r)-3-{3-(4-fluorophenyl)-4-[6-(1-methyl-1H-imidazol-4-yl)furo[2,3-d]pyrimidin-4-yl]-1H-pyrazol-1-yl}cyclobutan-1-ol], the IC50 in the test on BaF3_EGFR LR/CS cells (setting [3]) was determined as 5.14 nM; with BaF3_EGFR d19/CS cells (setting [4]), 4.31 nM; in test [2] it was 0.123 nM; in the test on Ba/F3_EGFR WT cells (setting [5]) it was 272 nM.
In the case of `Cc1nn(C)cc1-c1cc2c(-c3cn([C@H]4C[C@H](C#N)C4)nc3-c3ccc(F)cc3)ncnc2o1` [Example 279, (1r,3r)-3-{4-[6-(1,3-dimethyl-1H-pyrazol-4-yl)furo[2,3-d]pyrimidin-4-yl]-3-(4-fluorophenyl)-1H-pyrazol-1-yl}cyclobutane-1-carbonitrile], the IC50 in the test with BaF3_EGFR LR/CS cells (setting [3]) was 8.89 nM; in the test on BaF3_EGFR d19/CS cells (setting [4]) it was 5.64 nM; in test [2] it was 0.106 nM; in the test on Ba/F3_EGFR WT cells (setting [5]), 476 nM.
Turning to `Cc1nn(C)c(C(F)F)c1-c1cc2c(-c3cn(CC(C)(C)O)nc3-c3ccc(F)cc3)ncnc2o1` [Example 280, 1-[4-{6-[5-(difluoromethyl)-1,3-dimethyl-1H-pyrazol-4-yl]furo[2,3-d]pyrimidin-4-yl}-3-(4-fluorophenyl)-1H-pyrazol-1-yl]-2-methylpropan-2-ol], the IC50 amounted to 38.2 nM in the test on BaF3_EGFR LR/CS cells (setting [3]), 31.7 nM in the test on BaF3_EGFR d19/CS cells (setting [4]), 0.288 nM in test [2] and 857 nM in the test with Ba/F3_EGFR WT cells (setting [5]).
Regarding `CC(C)(O)Cn1cc(-c2ncnc3oc(-c4cccc(F)n4)cc23)c(-c2ccc(F)cc2)n1` [Example 281, 1-{3-(4-fluorophenyl)-4-[6-(6-fluoropyridin-2-yl)furo[2,3-d]pyrimidin-4-yl]-1H-pyrazol-1-yl}-2-methylpropan-2-ol], the IC50 in the test on BaF3_EGFR LR/CS cells (72 h) is 80.7 nM; in the test with BaF3_EGFR d19/CS cells (72 h), 57.1 nM; in test [2], 0.425 nM; with Ba/F3_EGFR WT cells (72 h) it was 1840 nM.
In the case of `Cc1nc(-c2cc3c(-c4cn(CC(C)(C)O)nc4-c4ccc(F)cc4)ncnc3o2)ccc1F` [Example 282, 1-{4-[6-(5-fluoro-6-methylpyridin-2-yl)furo[2,3-d]pyrimidin-4-yl]-3-(4-fluorophenyl)-1H-pyrazol-1-yl}-2-methylpropan-2-ol], the IC50 turned out to be 62.9 nM in the test on BaF3_EGFR LR/CS cells (setting [3]), 40.7 nM in the test on BaF3_EGFR d19/CS cells (setting [4]), 0.307 nM in test [2] and 1980 nM in the test with Ba/F3_EGFR WT cells (setting [5]).
For the compound `CC(C)(O)Cn1cc(-c2ncnc3oc(-c4cccnc4O)cc23)c(-c2ccc(F)cc2)n1` [Example 283, 3-{4-[3-(4-fluorophenyl)-1-(2-hydroxy-2-methylpropyl)-1H-pyrazol-4-yl]furo[2,3-d]pyrimidin-6-yl}pyridin-2-ol], the IC50 in the test on BaF3_EGFR LR/CS cells (setting [3]) is 9.79 nM; with BaF3_EGFR d19/CS cells (setting [4]) it was 9.47 nM; in test [2] it was 0.113 nM; in the test on Ba/F3_EGFR WT cells (setting [5]), 657 nM.
With `CC(C)(O)Cn1cc(-c2ncnc3oc(-c4cnn5c4OCCC5(C)C)cc23)c(-c2ccc(F)cc2)n1` [Example 284, 1-(4-(6-(7,7-dimethyl-6,7-dihydro-5H-pyrazolo[5,1-b][,3]oxazin-3-yl)furo[2,3-d]pyrimidin-4-yl)-3-(4-fluorophenyl)-1H-pyrazol-1-yl)-2-methylpropan-2-ol], the IC50 with BaF3_EGFR LR/CS cells (setting [3]) was determined as 11.2 nM; in the test on BaF3_EGFR d19/CS cells (setting [4]), 10.2 nM; in test [2], 0.203 nM; with Ba/F3_EGFR WT cells (setting [5]) it was 1000 nM.
Turning to `COc1ncccc1-c1cc2c(-c3cn(CCC#N)nc3-c3ccc(F)cc3)ncnc2o1` [Example 285, 3-{3-(4-fluorophenyl)-4-[6-(2-methoxypyridin-3-yl)furo[2,3-d]pyrimidin-4-yl]-1H-pyrazol-1-yl}propanenitrile], the IC50 in the test on BaF3_EGFR LR/CS cells (setting [3]) is 4.86 nM; in the test with BaF3_EGFR d19/CS cells (setting [4]) it was 3.75 nM; in test [2], 0.228 nM; in the test with Ba/F3_EGFR WT cells (setting [5]), 321 nM.
For `COc1ncccc1-c1cc2c(-c3cn(CC(F)(F)CO)nc3-c3ccc(F)cc3)ncnc2o1` [Example 286, 2,2-difluoro-3-{3-(4-fluorophenyl)-4-[6-(2-methoxypyridin-3-yl)furo[2,3-d]pyrimidin-4-yl]-1H-pyrazol-1-yl}propan-1-ol], in that order: 20.1 nM, 15.8 nM, 0.203 nM and 1110 nM.
As for `Oc1ncccc1-c1cc2c(-c3cn([C@H]4C[C@@H](F)C4)nc3-c3ccc(F)cc3)ncnc2o1` [Example 287, 3-(4-{1-[(1s,3s)-3-fluorocyclobutyl]-3-(4-fluorophenyl)-1H-pyrazol-4-yl}furo[2,3-d]pyrimidin-6-yl)pyridin-2-ol], the IC50 was found to be 8.63 nM in the test on BaF3_EGFR LR/CS cells (setting [3]), 8.85 nM with BaF3_EGFR d19/CS cells (setting [4]), 0.213 nM in test [2] and 613 nM in the test with Ba/F3_EGFR WT cells (setting [5]).
